Data published in US8946268B2, “Modulators of HEC1 activity and methods therefor” (Taivex Therapeutics, Inc., priority 2010, dated 2015).

Assays:
Type in all cases: cell-based
[1] = test system: Hela; experiment: Antiproliferative activity (MTS assay), Hela; details: Hela cells
Procedure: (§1) Antiproliferative effect is expressed as IC50 values in microMolar final concentration.
(§2) Cells were grown at 37° C. in a humidified atmosphere with 5% CO2 and 95% air. Cells were seeded in 96 well tissue culture plates.
(§3) Compound treatment started after overnight incubation of cells (TO). […] Compound was added to the plate in triplicate wells, and the plates were then incubated for 96 hours. DMSO (compounds diluents) was also included and added to the plate in control wells. Cell viability was then determined by MTS assay using CellTiter 96® AQueous non-radioactive cell proliferation assay system (Promega). A plate reader (Molecular Devices, Vmax) was used to read the optical densities, and the results were used to deduce concentration-response curves. […] The results were analyzed using linear regression software (GraphPad Prism 5; GraphPad Software Inc.).
(§4) The GI50 values (growth inhibitory activity) were determined to emphasize on the correction for the cell count at time zero; thus, the % inhibition of test drug were: [1−(T−T0)/(C−T0)]×100; and these value were used to plot the concentration-response curves, and then analyzed with linear regression software (GraphPad Prism 5).

[2] = test system: K562; experiment: Antiproliferative activity (MTS assay), K562; details: K562 cells
Procedure: as §1, §2, §3, §4

[3] = test system: MDA-MB-468; experiment: Antiproliferative activity (MTS assay), MDA-MB-468; details: MDA-MB-468 cells
Procedure: as §1, §2, §3, §4

[4] = test system: MDA-MB-231; experiment: Antiproliferative activity (MTS assay), MDA-MB-231; details: MDA-MB-231 cells
Procedure: as §1, §2, §3, §4

IC50 ([1]; Homo sapiens, HeLa, 96 h) [µM]	IC50 ([2]; Homo sapiens, K562, 96 h) [µM]	IC50 ([3]; Homo sapiens, MDA-MB-468, 96 h) [µM]	IC50 ([4]; Homo sapiens, MDA-MB-231, 96 h) [µM]	IC50 ([1]; 96 hours) [µM]	IC50 ([2]; 96 hours) [µM]	IC50 ([3]; 96 hours) [µM]	IC50 ([4]; 96 hours) [µM]	Compound
> 10	> 10	> 10	> 10	–	–	–	–	O=C(Nc1nc(-c2ccc(O)cc2)cs1)c1ccncc1 [Compound 57]
> 10	> 10	> 10	> 10	–	–	–	–	O=C(Nc1nc(-c2ccc(O)cc2)cs1)c1ccncn1 [Compound 58]
> 10	> 10	> 10	> 10	–	–	–	–	O=C(Nc1nc(-c2ccc(O)cc2)cs1)c1ccccn1 [Compound 59]
> 10	> 10	> 10	> 10	–	–	–	–	O=C(Nc1nc(-c2ccc(O)cc2)cs1)c1cccnc1 [Compound 60]
> 10	> 10	> 10	> 10	–	–	–	–	Cc1cc(O)ccc1-c1csc(NC(=O)c2ccc(C#N)cc2)n1 [Compound 61]
> 10	7.16	5.45	4	–	–	–	–	COc1c(F)cc(-c2csc(NC(=O)c3ccncc3)n2)cc1F [Compound 62]
> 10	> 10	> 10	> 10	–	–	–	–	COc1ccc(-c2csc(NC(=O)c3ccnc(Cl)c3)n2)cc1F [Compound 63]
0.84	0.93	0.98	0.62	–	–	–	–	Cc1cc(C)c(-c2csc(NC(=O)c3ccnc(Cl)c3)n2)c(C)c1 [Compound 64]
0.2	0.21	0.24	0.11	–	–	–	–	CCOc1cc(C)c(-c2csc(NC(=O)c3ccnc(Cl)c3)n2)c(C)c1 [Compound 66]
> 10	0.82	0.78	0.57	–	–	–	–	COc1cc(C)c(-c2csc(NC(=O)Nc3ccncc3)n2)c(C)c1 [Compound 67]
5.13	4.96	3.61	4.24	–	–	–	–	CC(=O)Nc1cc(C)c(-c2csc(NC(=O)Nc3ccncc3)n2)c(C)c1 [Compound 68]
0.03	0.16	0.21	0.11	–	–	–	–	CCOc1cc(C)c(-c2csc(NC(=O)c3ccnc(F)c3)n2)c(C)c1 [Compound 70]
2.7	5.4	4.81	4.28	–	–	–	–	COc1cc(C)c(-c2csc(NC(=O)c3cc[n+]([O-])cc3)n2)c(C)c1 [Compound 72]
> 10	> 10	> 10	> 10	–	–	–	–	CC(C)c1cc(C(C)C)c(-c2csc(NC(=O)c3ccncc3)n2)c(C(C)C)c1 [Compound 73]
1.59	2.13	1.27	1.46	–	–	–	–	CC(=O)Nc1cc(C)c(-c2csc(NC(=O)c3ccncc3)n2)c(C)c1 [Compound 74]
2.93	3.7	4.34	2.37	–	–	–	–	COc1cc(C)c(-c2csc(NC(=O)c3cncs3)n2)c(C)c1 [Compound 75]
1.12	0.94	1.25	0.54	–	–	–	–	O=C(Nc1nc(-c2c(F)cc(F)cc2F)cs1)c1ccncc1 [Compound 76]
2.29	2.82	2.78	1.22	–	–	–	–	Cc1cc(C)c(-c2csc(NC(=O)c3ccncc3F)n2)c(C)c1 [Compound 77]
–	–	–	–	0.86	0.79	0.82	0.72	Cc1cc(C)c(-c2csc(NC(=O)c3ccnc(Cl)c3)n2)c(C)c1 [Compound 81]
2.37	2.23	4.17	3.51	–	–	–	–	Cc1cc(C)c(-c2csc(NC(=O)c3ccnc(N4CCOCC4)c3)n2)c(C)c1 [Compound 83]
> 10	> 10	28.8	> 10	–	–	–	–	Cc1cc(C)c(-c2csc(NC(=O)c3ccnc(N4CCN(C)CC4)c3)n2)c(C)c1 [Compound 84]
1.72	0.69	2.51	0.77	–	–	–	–	COc1cc(C(=O)Nc2nc(-c3c(C)cc(C)cc3C)cs2)ccn1 [Compound 86]
> 10	> 10	> 10	> 10	–	–	–	–	COc1cc(C(=O)Nc2nc(-c3c(C)cc(C)cc3C)cs2)cc(Cl)n1 [Compound 87]
> 10	8.3	15.5	7.98	–	–	–	–	Cc1cc(C)c(-c2csc(NC(=O)c3cc(Cl)nc(Cl)c3)n2)c(C)c1 [Compound 88]

IC50 ([1]; Homo sapiens, HeLa, 96 h) [µM]	IC50 ([2]; Homo sapiens, K562, 96 h) [µM]	IC50 ([3]; Homo sapiens, MDA-MB-468, 96 h) [µM]	IC50 ([4]; Homo sapiens, MDA-MB-231, 96 h) [µM]	IC50 ([1]; 96 hours) [µM]	IC50 ([2]; 96 hours) [µM]	IC50 ([3]; 96 hours) [µM]	IC50 ([4]; 96 hours) [µM]	Compound
> 10	> 10	8.2	> 10	–	–	–	–	CC(=O)Nc1cc(C(=O)Nc2nc(-c3c(C)cc(C)cc3C)cs2)ccn1 [Compound 89]
1.15	0.99	1.22	0.8	–	–	–	–	Cc1cc(C)c(-c2csc(NC(=O)c3cc(F)nc(F)c3)n2)c(C)c1 [Compound 90]
> 10	1.4	4.66	6.06	–	–	–	–	Cc1cc(C)c(-c2csc(NC(=O)c3ccnc(N4CCCCC4)c3)n2)c(C)c1 [Compound 91]
> 10	0.45	3.29	2.21	–	–	–	–	Cc1cc(C)c(-c2csc(NC(=O)c3ccnc(N(C)C)c3)n2)c(C)c1 [Compound 92]
0.62	0.38	0.3	0.31	–	–	–	–	Cc1cc(C)c(-c2csc(NC(=O)Cc3ccncc3)n2)c(C)c1 [Compound 93]
0.23	0.23	0.39	0.3	–	–	–	–	Cc1cc(OCC(C)O)cc(C)c1-c1csc(NC(=O)c2ccncc2)n1 (stereo not drawn) [Compound 94]
3.26	9.11	3.11	8.3	–	–	–	–	Cc1cc(OCC(O)CO)cc(C)c1-c1csc(NC(=O)c2ccncc2)n1 (stereo not drawn) [Compound 97]
0.04	0.02	0.04	0.02	–	–	–	–	COc1ccc(Oc2cc(C)c(-c3csc(NC(=O)c4ccnc(F)c4)n3)c(C)c2)cc1 [Compound 98]
0.11	0.05	0.13	0.07	–	–	–	–	Cc1cc(Oc2ccc3c(c2)OCO3)cc(C)c1-c1csc(NC(=O)c2ccncc2)n1 [Compound 101]
> 10	2.48	2.17	1.11	–	–	–	–	Cc1cc(C)c(-c2csc(NC(=O)/C=C/c3cccnc3)n2)c(C)c1 [Compound 103]
> 10	2.44	7.64	1.1	–	–	–	–	Cc1cc(C)c(-c2csc(NC(=O)c3ccc4cn[nH]c4c3)n2)c(C)c1 [Compound 104]
> 10	> 10	8.02	> 10	–	–	–	–	Cc1cc(C)c(-c2csc(NC(=O)c3ccc4[nH]ncc4c3)n2)c(C)c1 [Compound 105]
> 10	> 10	> 10	4.95	–	–	–	–	Cc1cc(C)c(-c2csc(NC(=O)c3ccc4[nH]nnc4c3)n2)c(C)c1 [Compound 106]
0.31	0.24	0.28	0.26	–	–	–	–	COCCOc1cc(C)c(-c2csc(NC(=O)c3ccncc3)n2)c(C)c1 [Compound 109]
0.11	0.1	0.13	0.09	–	–	–	–	COCCCOc1cc(C)c(-c2csc(NC(=O)c3ccncc3)n2)c(C)c1 [Compound 110]
0.33	0.18	0.33	0.25	–	–	–	–	COc1ccccc1Oc1cc(C)c(-c2csc(NC(=O)c3ccncc3)n2)c(C)c1 [Compound 111]
0.4	0.23	0.55	0.3	–	–	–	–	Cc1cc(I)cc(C)c1-c1csc(NC(=O)c2ccncc2)n1 [Compound 114]
0.23	0.14	0.22	0.17	–	–	–	–	Cc1cc(Sc2ccccc2)cc(C)c1-c1csc(NC(=O)c2ccncc2)n1 [Compound 115]
0.15	0.11	0.13	0.12	–	–	–	–	Cc1ccc(Sc2cc(C)c(-c3csc(NC(=O)c4ccncc4)n3)c(C)c2)cc1 [Compound 116]
0.27	0.15	0.22	0.24	–	–	–	–	Cc1cc(Cc2ccccc2)cc(C)c1-c1csc(NC(=O)c2ccncc2)n1 [Compound 118]
0.16	0.18	0.25	0.22	–	–	–	–	COc1ccc(Oc2cc(C)c(-c3csc(NC(=O)c4cc[n+]([O-])cc4)n3)c(C)c2)cc1 [Compound 120]
0.9	0.32	0.81	0.44	–	–	–	–	COc1ccc(Oc2cc(C)c(-c3csc(NC(=O)c4ccncc4C)n3)c(C)c2)cc1 [Compound 121]
2.13	0.36	1.22	0.72	–	–	–	–	Cc1cc(Nc2ccc(Br)cc2)cc(C)c1-c1csc(NC(=O)c2ccncc2)n1 [Compound 122]
0.87	0.33	0.88	0.61	–	–	–	–	Cc1cc(Nc2ccccc2)c(Br)c(C)c1-c1csc(NC(=O)c2ccncc2)n1 [Compound 123]
